Experimental data from paper PMC9692619, “Insights into the 3D In Vitro Permeability and In Vivo Antioxidant Protective Effects of Kiwiberry Leaf Extract: A Step Forward to Human Nutraceutical Use” (International Journal of Molecular Sciences, 2022).
Values joined by “and” are separate entries in the source; they are usually repeats but may differ in a detail not shown here. Equal values may be shown once. Marks after values point to notes of the source that are not given here.

How the values were obtained:
[1] = tested on: CAT; assay: In vivo antioxidant parameter: CAT activity in kidney, liver, serum; set-up: species or system Wistar rats; details: 50 mg/kg bw oral once daily 7 days
Protocol: (§1) The homogenate supernatants were analyzed by biochemical assays.
(§2) The antioxidant enzyme activities, namely SOD, CAT, and GSH-Px, were evaluated in the homogenate supernatants from organs through commercial enzymatic kits from Sigma-Aldrich (Steinheim, Germany). The lipid peroxidation was determined through the determination of MDA levels using a commercial kit (Merck, Darmstadt, Germany).

[2] = tested on: GSH-Px; assay: In vivo antioxidant parameter: GSH-Px activity in kidney, liver, serum; set-up: species or system Wistar rats; details: 50 mg/kg bw oral once daily 7 days
Protocol: as §1, §2

[3] = tested on: kidney and liver tissues; assay: Histopathological analysis of kidney and liver (hematoxylin-eosin); details: oral gavage once daily 7 days; extract 50 and 75 mg/kg bw, vitamin C 50 mg/kg bw
Protocol: Young male Wistar rats of 5–6 weeks of age (140–207 g) were acquired from the Jackson Laboratory (Bar Harbor, ME, USA) and acclimatized in polypropylene cages to the environmental conditions (12 h dark/light cycle, controlled temperature (21 ± 2 °C), relative humidity (55 ± 10%) and fed ad libitum with standard pellet diet and water for 1 week before the experiment).
All groups were treated once daily for 7 days by oral gavage after a fasting period of 4 h. The body weight of each animal was recorded twice a week during the experimental period. Blood samples were collected from tail vein and a glucometer (Accu-Chek, Roche® Diabetes Care, Inc., Mississauga, QC, Canada) was used to measure the glucose levels.
After 7 days, the animals were sacrificed by pentobarbital overdose (50 mg/kg bw). The organs (liver and kidneys) were removed, and the blood was collected by cardiac puncture. Serum was separated by centrifugation (20,000× g, 15 min, 4 °C) and stored at −80 °C for biochemical analyses [42]. The organs were dissected from each animal and subsequently mixed with 50 mM potassium phosphate, pH 7.0, and centrifuged (20,000× g, 15 min, 4 °C), according to the kit manufacturer’s instructions. The homogenate supernatants were analyzed by biochemical assays.
The tissue samples (liver and kidney) were preserved in 10% formalin. […]

[4] = tested on: SOD; assay: In vivo antioxidant parameter: SOD activity in kidney, liver, serum; set-up: species or system Wistar rats; details: 50 mg/kg bw oral once daily 7 days
Protocol: as §1, §2

[5] = tested on: MDA; assay: Lipid peroxidation: MDA levels in kidney, liver, serum; assay type: in vivo, Wistar rats; details: 50 mg/kg bw oral once daily 7 days
Protocol: as §1, §2

[6] = Serum biochemical analysis (TC, HDL-C, LDL-C, TG) after 7 days oral treatment; assay type: in vivo, Wistar rats; details: 50 mg/kg bw oral once daily 7 days
Protocol: as §1
Serum was used to analyze the TC, HDL-C, and LDL-C using commercial kits from Sigma-Aldrich (Steinheim, Germany). TG levels were estimated in the blood serum through a commercial kit from Abcam (Cambridge, MA, USA).

[7] = tested on: co-culture model with Caco-2 and HT29-MTX; assay: 3D intestinal permeability assay (co-culture, HPLC-MS of basolateral samples); assay type: in vitro ADME; details: for Permeability (%): 3D intestinal model, compound of kiwiberry leaf extract; for permeation in the 3D intestinal model: time not stated; for permeation (detection after the 3D intestinal permeation assay): aglycones, result in words
Protocol: The intestinal permeability was carried out in a co-culture model with Caco-2 and HT29-MTX [40]. The extract was added to the apical side of the model. A sample from the basolateral side was collected at different timepoints (0, 15, 30, 45, 60, 90, 120, 150, 180, and 240 min). Samples were analyzed by HPLC-MS assay (Section 3.5). The TEER of the model was evaluated before, during and at the end of the permeability assay using an EVOM Epithelial Volthometer Instrument equipped with a chopstick electrode (World Precision Instruments, Sarasota, FL, USA).
The phenolic compounds that permeated the intestinal 3D model were identified and quantified according to Silva et al.. The samples were diluted 10 times with methanol-water (50:50) and centrifuged at 13,300× […] for 15 min. The supernatant was then transferred to a vial for the LC-MS analysis. The standard calibration curves were: • Chlorogenic acid titration curve: y = 198.01x + 20.138 (R^2 = 1) • Rutin titration curve: y = 58.564x + 41.752 (R^2 = 0.9998)
Regarding the multiple reaction monitoring (MRM), the values were: • Chlorogenic acid: 353.5 > 191.2 • Rutin: 609.4 > 301.3 • Coumaroyl quinic acid: 337.3 > 191.3

Row | SMILES | Permeability (%) ([7]; 15 min) | Permeability (%) ([7]; 30 min) | Permeability (%) ([7]; 45 min) | Permeability (%) ([7]; 60 min) | Permeability (%) ([7]; 90 min) | Permeability (%) ([7]; 120 min) | Permeability (%) ([7]; 180 min) | Permeability (%) ([7]; 240 min) | permeation in the 3D intestinal model [7] | permeation (detection after the 3D intestinal permeation assay) [7] | further results
1 | O=C1O[C@H]([C@@H](O)CO)C(O)=C1O [vitamin C] |  |  |  |  |  |  |  |  |  |  | CAT, Kidneys [1]: 427,496 ± 78,015 ^b nmol/min/g protein; CAT, Liver [1]: 3,762,450 ± 434,242 ^c nmol/min/g protein; CAT, Serum [1]: 34,911 ± 7975 ^b nmol/min/mL protein; GSH-Px, Kidneys [2]: 136.66 ± 19.62 ^b units/g protein; GSH-Px, Liver [2]: 71.34 ± 10.94 ^b,c units/g protein; GSH-Px, Serum [2]: 20.16 ± 5.29 ^b units/mL protein; histopathological examination of kidneys [3]: did not lead to morphological alterations; SOD, Kidneys [4]: 123.13 ± 19.27 ^b,c units/g protein; SOD, Liver [4]: 83.71 ± 6.06 ^b units/g protein; SOD, Serum [4]: 79.20 ± 5.76 ^b units/mL protein; MDA, Kidneys [5]: 196,748 ± 31,125 ^a nmol/g protein; MDA, Liver [5]: 145,827 ± 10,063 ^b nmol/g protein; MDA, Serum [5]: 746.79 ± 123.55 ^b nmol/mL protein; HDL-C [6]: 155.09 ± 37.71 mg/dL; LDL-C [6]: 76.24 ± 16.52 mg/dL; TG [6]: 229.76 ± 33.54 ^a mg/dL; TC ([6]; 50 mg/kg): 79.81 mg/dL and 79.81 ± 15.11 mg/dL
2 | O=C(/C=C/c1ccc(O)c(O)c1)O[C@@H]1C[C@](O)(C(=O)O)C[C@@H](O)[C@H]1O [Chlorogenic acid] | <LOD | 1.79 ± 0.09 | <LOD | <LOD | <LOD | <LOD | <LOD | 2.49 |  |  | Permeability (%) ([7]; 240 min, listed as Chlorogenic Acid): 2.49 ± 0.13%
3 | C[C@@H]1O[C@@H](OC[C@H]2O[C@@H](Oc3c(-c4ccc(O)c(O)c4)oc4cc(O)cc(O)c4c3=O)[C@H](O)[C@@H](O)[C@@H]2O)[C@H](O)[C@H](O)[C@H]1O [Rutin] | 6.67 ± 0.33% | 10.89 ± 0.54 | 17.01 ± 0.85% | 14.61 ± 0.73% | 14.56 ± 0.73% | 18.50 ± 0.93% | 18.30 ± 0.92% | 25.40 ± 1.27 | higher than 25% |  | Permeability (%) ([7]; 15 min, listed as rutin): 6.67%; Permeability (%) ([7]; 240 min, listed as rutin): 25.40%
4 | O=c1c(O)c(-c2ccc(O)cc2)oc2cc(O)cc(O)c12 [kaempferol] |  |  |  |  |  |  |  |  |  | absence of permeation | 
5 | O=c1c(O)c(-c2ccc(O)c(O)c2)oc2cc(O)cc(O)c12 [quercetin] |  |  |  |  |  |  |  |  |  | absence of permeation | 
6 | O=C(/C=C/c1ccc(O)cc1)O[C@@H]1C[C@](O)(C(=O)O)C[C@@H](O)[C@H]1O [Coumaroyl quinic acid] | 1.04 ± 0.05% | 18.81 ± 0.94 | 7.99 ± 0.39% | 13.50 ± 0.68% | 19.74 ± 0.99% | 14.60 ± 0.73% | 24.32 ± 1.22% | 34.23 | higher than 25% |  | Permeability (%) ([7]; 240 min, listed as Coumaroyl Quinic Acid): 34.23 ± 1.71%
